The source of these data is paper PMC4588179, “Antifungal Activity of 14-Helical β-Peptides against Planktonic Cells and Biofilms of Candida Species” (Pharmaceuticals, 2015).

A short description of data set [1]: RP-HPLC retention time as measure of β-peptide hydrophobicity. In kind it is physicochemical. The conditions noted are these: chromatographic, analytical RP-HPLC, C18 (Waters X-bridge, 4.6 mm × 250 mm), gradient 20%–80% CH3CN in water with 0.1% TFA over 5–35 min, 1 mL/minute, 0.5 to 1 mg/mL, 50 µL injected; mean ± standard deviation of triplicate measurements. The text has this: β-peptides were produced by microwave-assisted Fmoc synthesis at 20−40 μmol scales and purified by RP-HPLC using a C18 column. MALDI mass spectrometry was used to validate the mass of each peptide as described previously. Retention times determined by C18 RP-HPLC were used as a measure of the relative hydrophobicity of the β-peptides (Table 1). This approach has been used previously by our group and others to assess the relative hydrophobicity of different peptide structures. Preliminary antifungal activity and mammalian toxicity evaluation were reported previously for β-peptides 1–16 as planktonic MIC against C. albicans and percent hemolysis at the MIC, respectively.
Hydrophobicity of 14-helical β-peptides was characterized by measuring retention times with an analytical RP-HPLC using a C18 column (Waters, X-bridge, column dimensions 4.6 mm × 250 mm, Milford, MA, USA). The β-peptide solutions (0.5 to 1 mg/mL, 50 µL) were injected into the HPLC at a flow rate of 1 mL/minute. Retention time was characterized in triplicate with a gradient of 20%–80% CH3CN in water containing 0.1% TFA over 5–35 min.

Data set [2] has as its system C. albicans SC5314 biofilm formation. Put plainly: Biofilm formation in the presence of β-peptides, XTT. Type of data set: cell-based, Candida albicans. The conditions noted are these: 10^6 cells/mL incubated with 2-fold dilutions of β-peptide, 37 °C, 48 h, washed, 10% or less metabolic activity vs untreated control. On the procedure: C. albicans, C. glabrata, C. tropicalis, and C. parapsilosis biofilm formation in the presence of β-peptide was evaluated using a procedure used previously. Briefly, 100 μL of overnight cultures of C. albicans SC5314, C. glabrata, C. parapsilosis, and C. tropicalis adjusted to 2 × 10^6 cells/mL was added to 100 μL of two-fold serially diluted β-peptide in a 96-well plates. Peptide-free controls and cell and peptide-free controls were included for each peptide assayed and the plates were incubated at 37 °C for 48 h. After 48 h, biofilms were washed with PBS to remove non-adherent cells and the metabolic activity of biofilms grown in the presence of β-peptide was determined using XTT.
For evaluation of metabolic activities of planktonic cells and biofilms in susceptibility testing in 96-well plates, 100 μL of XTT solution was added to every well and plates were incubated at 37 °C in the dark for 1.5 h for C. albicans and 2.5 h for C. glabrata, C. parapsilosis and C. tropicalis. At the end of the incubation, 75 μL of supernatant from wells were transferred to a new plate and absorbance at 490 nm was measured. The percent metabolic activity was calculated as: Metabolic Activity (%)= (A490− A490background)/A490cell control− A490background ×100 where A490 , A490cell control , and A490background are the average absorbance values of wells containing a specific concentration of β-peptide, cell control wells without β-peptide, and media only wells, respectively. Experiments were performed in triplicate and repeated on at least two different days.
On the technique in general: Tetrazolium dyes change colour on reduction, which living cells bring about.

Data set [3] relates to human red blood cells (hRBCs). Put plainly: Hemolysis of human red blood cells. In kind it is cell-based. The conditions noted are these: red cells of human. On the procedure:
Table S1. Hemolysis of β-peptide 1-16, concentration of β-peptid e needed for 50% lysis of human red blood cells (hRBCs)
Peptide # Peptide Concentration at 50% Hemolysis a (HC50, µg/mL) […]
a Hemolysis assays were perfor med as previously indicated in Lee, M.R. et al., ACS Chem. Biol. (2014). Briefly, equal volumes of 2-fold dilutions of β-peptides in tris-buffered saline (TBS) were incubated with hRBCs for an hour at 37 °C. Supernatants were transferred to a new plate and absorbance was measured at 405 nm.
% hemolysis was calculated relative to positive lysis control and the concentration of peptide needed for 50% hemolysis was recorded as HC50 for that peptide. Values reported are average measurements from three independent experiments of duplicates each and the error denoted is the standard deviation. Concentration dependent hemolysis graphs can be found in Lee, M.R. et al., ACS Chem. Biol. (2014).

Each structure is given as a SMILES string.

As for `C[C@@H](CC(=O)N[C@@H](CCCCN)CC(N)=O)NC(=O)[C@H]1CCCC[C@@H]1NC(=O)C[C@H](CCCCN)NC(=O)C[C@H](C)NC(=O)[C@H]1CCCC[C@@H]1NC(=O)C[C@H](CCCCN)NC(=O)C[C@H](C)NC(=O)[C@H]1CCCC[C@@H]1N` [Peptide 1], the “Hydrophobicity (HPLC Retention Time, min)” value (shortened to “Hydrophobicity”) in data set [1] stood at 19.3 ± 0.1 min.
As to `CC[C@@H](CC(=O)N[C@@H](CCCCN)CC(N)=O)NC(=O)[C@H]1CCCC[C@@H]1NC(=O)C[C@H](CCCCN)NC(=O)C[C@H](CC)NC(=O)[C@H]1CCCC[C@@H]1NC(=O)C[C@H](CCCCN)NC(=O)C[C@H](CC)NC(=O)[C@H]1CCCC[C@@H]1N` [Peptide 2], the “Hydrophobicity” value in data set [1] is recorded as 22.5 ± 0.2 min. Also, the “MIC, Biofilm Formation (C. albicans)” value in data set [2] is 64 µg/mL.
For `CC[C@@H](CC(=O)N[C@@H](CCCNC(=N)N)CC(N)=O)NC(=O)[C@H]1CCCC[C@@H]1NC(=O)C[C@H](CCCNC(=N)N)NC(=O)C[C@H](CC)NC(=O)[C@H]1CCCC[C@@H]1NC(=O)C[C@H](CCCNC(=N)N)NC(=O)C[C@H](CC)NC(=O)[C@H]1CCCC[C@@H]1N` [Peptide 3], the “Hydrophobicity” value in data set [1] is 23.2 ± 0.1 min. In data set [2], the “MIC, Biofilm Formation (C. albicans)” value is on record as 32 µg/mL.
In the case of `CC(C)[C@@H](CC(=O)N[C@@H](CCCNC(=N)N)CC(N)=O)NC(=O)[C@H]1CCCC[C@@H]1NC(=O)C[C@H](CCCNC(=N)N)NC(=O)C[C@@H](NC(=O)[C@H]1CCCC[C@@H]1NC(=O)C[C@H](CCCNC(=N)N)NC(=O)C[C@@H](NC(=O)[C@H]1CCCC[C@@H]1N)C(C)C)C(C)C` [Peptide 5], the “Hydrophobicity” value in data set [1] is listed as 25.4 ± 0.1 min. Further, in data set [2], the “MIC, Biofilm Formation (C. albicans)” value stood at 8 µg/mL.
Turning to `NCCCC[C@@H](CC(N)=O)NC(=O)[C@H]1CCCC[C@@H]1NC(=O)[C@H]1CCCC[C@@H]1NC(=O)C[C@H](CCCCN)NC(=O)[C@H]1CCCC[C@@H]1NC(=O)[C@H]1CCCC[C@@H]1NC(=O)C[C@H](CCCCN)NC(=O)[C@H]1CCCC[C@@H]1NC(=O)[C@H]1CCCC[C@@H]1N` [Peptide 6], in data set [1], the “Hydrophobicity” value is 23.1 ± 0.2 min.
Regarding `N=C(N)NCCC[C@@H](CC(N)=O)NC(=O)[C@H]1CCCC[C@@H]1NC(=O)[C@H]1CCCC[C@@H]1NC(=O)C[C@H](CCCNC(=N)N)NC(=O)[C@H]1CCCC[C@@H]1NC(=O)[C@H]1CCCC[C@@H]1NC(=O)C[C@H](CCCNC(=N)N)NC(=O)[C@H]1CCCC[C@@H]1NC(=O)[C@H]1CCCC[C@@H]1N` [Peptide 7], the “Hydrophobicity” value in data set [1] is recorded as 23.8 ± 0.1 min. Further, the “MIC, Biofilm Formation (C. albicans)” value in data set [2] is recorded as 16 µg/mL.
As to `NCCCC[C@@H](CC(N)=O)NC(=O)C[C@H](Cc1ccccc1)NC(=O)[C@H]1CCCC[C@@H]1NC(=O)C[C@H](CCCCN)NC(=O)C[C@H](Cc1ccccc1)NC(=O)[C@H]1CCCC[C@@H]1NC(=O)C[C@H](CCCCN)NC(=O)C[C@H](Cc1ccccc1)NC(=O)[C@H]1CCCC[C@@H]1N` [Peptide 8], the “Hydrophobicity” value in data set [1] worked out at 26.2 ± 0.2 min. In data set [2], the “MIC, Biofilm Formation (C. albicans)” value is recorded as 8 µg/mL.
As to `C[C@@H](CC(=O)N[C@@H](CCCCN)CC(=O)N[C@H]1CCCC[C@@H]1C(=O)N[C@@H](C)CC(=O)N[C@@H](CCCCN)CC(=O)N[C@H]1CCCC[C@@H]1C(=O)N[C@@H](C)CC(=O)N[C@@H](CCCCN)CC(N)=O)NC(=O)[C@H]1CCCC[C@@H]1NC(=O)C[C@@H](N)Cc1ccc(O)cc1` [Peptide 9], the “Hydrophobicity” value in data set [1] is recorded as 20.4 ± 0.2 min. The “Peptide Concentration at 50% Hemolysis (HC50)” value in data set [3] is given as greater than 400 µg/mL.
Regarding `CC[C@@H](CC(=O)N[C@@H](CCCCN)CC(=O)N[C@H]1CCCC[C@@H]1C(=O)N[C@@H](CC)CC(=O)N[C@@H](CCCCN)CC(=O)N[C@H]1CCCC[C@@H]1C(=O)N[C@@H](CC)CC(=O)N[C@@H](CCCCN)CC(N)=O)NC(=O)[C@H]1CCCC[C@@H]1NC(=O)C[C@@H](N)Cc1ccc(O)cc1` [Peptide 10], in data set [1], the “Hydrophobicity” value amounted to 23.5 ± 0.1 min. Moreover, the “Peptide Concentration at 50% Hemolysis (HC50)” value in data set [3] came to 149 ± 20 µg/mL.
On to `CC[C@@H](CC(=O)N[C@@H](CCCNC(=N)N)CC(=O)N[C@H]1CCCC[C@@H]1C(=O)N[C@@H](CC)CC(=O)N[C@@H](CCCNC(=N)N)CC(=O)N[C@H]1CCCC[C@@H]1C(=O)N[C@@H](CC)CC(=O)N[C@@H](CCCNC(=N)N)CC(N)=O)NC(=O)[C@H]1CCCC[C@@H]1NC(=O)C[C@@H](N)Cc1ccc(O)cc1` [Peptide 11], for which the “Hydrophobicity” value in data set [1] was found to be 24.2 ± 0.1 min. In data set [3], the “Peptide Concentration at 50% Hemolysis (HC50)” value is listed as 79 ± 8 µg/mL.
The like results for `CC(C)[C@@H](CC(=O)N[C@@H](CCCCN)CC(=O)N[C@H]1CCCC[C@@H]1C(=O)N[C@H](CC(=O)N[C@@H](CCCCN)CC(=O)N[C@H]1CCCC[C@@H]1C(=O)N[C@H](CC(=O)N[C@@H](CCCCN)CC(N)=O)C(C)C)C(C)C)NC(=O)[C@H]1CCCC[C@@H]1NC(=O)C[C@@H](N)Cc1ccc(O)cc1` [Peptide 12] were, in that order, 25.7 ± 0.1 min and 12 ± 6 µg/mL.
For `CC(C)[C@@H](CC(=O)N[C@@H](CCCNC(=N)N)CC(=O)N[C@H]1CCCC[C@@H]1C(=O)N[C@H](CC(=O)N[C@@H](CCCNC(=N)N)CC(=O)N[C@H]1CCCC[C@@H]1C(=O)N[C@H](CC(=O)N[C@@H](CCCNC(=N)N)CC(N)=O)C(C)C)C(C)C)NC(=O)[C@H]1CCCC[C@@H]1NC(=O)C[C@@H](N)Cc1ccc(O)cc1` [Peptide 13], the “Hydrophobicity” value in data set [1] is 26.5 ± 0.2 min. Further, the “Peptide Concentration at 50% Hemolysis (HC50)” value in data set [3] is on record as 11 ± 2 µg/mL.
For `NCCCC[C@@H](CC(N)=O)NC(=O)[C@H]1CCCC[C@@H]1NC(=O)[C@H]1CCCC[C@@H]1NC(=O)C[C@H](CCCCN)NC(=O)[C@H]1CCCC[C@@H]1NC(=O)[C@H]1CCCC[C@@H]1NC(=O)C[C@H](CCCCN)NC(=O)[C@H]1CCCC[C@@H]1NC(=O)[C@H]1CCCC[C@@H]1NC(=O)C[C@@H](N)Cc1ccc(O)cc1` [Peptide 14], in that order: 24.0 ± 0.2 min and 106 ± 37 µg/mL.
Take `N=C(N)NCCC[C@@H](CC(N)=O)NC(=O)[C@H]1CCCC[C@@H]1NC(=O)[C@H]1CCCC[C@@H]1NC(=O)C[C@H](CCCNC(=N)N)NC(=O)[C@H]1CCCC[C@@H]1NC(=O)[C@H]1CCCC[C@@H]1NC(=O)C[C@H](CCCNC(=N)N)NC(=O)[C@H]1CCCC[C@@H]1NC(=O)[C@H]1CCCC[C@@H]1NC(=O)C[C@@H](N)Cc1ccc(O)cc1` [Peptide 15]: in data set [1], the “Hydrophobicity” value is 24.6 ± 0.2 min. Besides, in data set [3], the “Peptide Concentration at 50% Hemolysis (HC50)” value is 73 ± 40 µg/mL.
`NCCCC[C@@H](CC(N)=O)NC(=O)C[C@H](Cc1ccccc1)NC(=O)[C@H]1CCCC[C@@H]1NC(=O)C[C@H](CCCCN)NC(=O)C[C@H](Cc1ccccc1)NC(=O)[C@H]1CCCC[C@@H]1NC(=O)C[C@H](CCCCN)NC(=O)C[C@H](Cc1ccccc1)NC(=O)[C@H]1CCCC[C@@H]1NC(=O)C[C@@H](N)Cc1ccc(O)cc1` [Peptide 16]: the “Hydrophobicity” value in data set [1] came to 27.4 ± 0.2 min. Besides, the “Peptide Concentration at 50% Hemolysis (HC50)” value in data set [3] amounted to 3 ± 1 µg/mL.
